# Measurements from PubChem BioAssay (NCI).
#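 Following 48 hours of exposure in 96-well plates, responses at five concentrations were used to interpolate endpoints linearly. Definition used: TGI = concentration required for complete inhibition of growth.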
# What was measured:
# Experiment in all cases: growth of human tumour cells (NCI), 48 h
# [1] = test system: 786-0 renal
# [2] = test system: A498 renal
# [3] = test system: A549 NSCLC
# [4] = test system: ACHN renal
# [5] = test system: BT-549 breast
# [6] = test system: CAKI-1 renal
# [7] = test system: CCRF-CEM leukemia
# [8] = test system: COLO 205 colon
# [9] = test system: DU-145 prostate
# [10] = test system: EKVX NSCLC
# [11] = test system: HCC-2998 colon
# [12] = test system: HCT-116 colon
# [13] = test system: HCT-15 colon
# [14] = test system: HL-60(TB) leukemia
# [15] = test system: HOP-62 NSCLC
# [16] = test system: HOP-92 NSCLC
# [17] = test system: HS 578T breast
# [18] = test system: HT29 colon
# [19] = test system: IGROV1 ovarian
# [20] = test system: K-562 leukemia
# [21] = test system: KM12 colon
# [22] = test system: LOX IMVI melanoma
# [23] = test system: M14 melanoma
# [24] = test system: MALME-3M melanoma
# [25] = test system: MCF7 breast
# [26] = test system: MDA-MB-231 breast
# [27] = test system: MDA-MB-435
# [28] = test system: MDA-N
# [29] = test system: MOLT-4 leukemia
# [30] = test system: NCI-H226 lung
# [31] = test system: NCI-H23 lung
# [32] = test system: NCI-H460 lung
# [33] = test system: NCI-H522 lung
# [34] = test system: NCI/ADR-RES ovarian
# [35] = test system: OVCAR-3 ovarian
# [36] = test system: OVCAR-4 ovarian
# [37] = test system: OVCAR-5 ovarian
# [38] = test system: OVCAR-8 ovarian
# [39] = test system: PC-3 prostate
# [40] = test system: RPMI-8226 leukemia
# [41] = test system: RXF 393 renal
# [42] = test system: SF-268 CNS
# [43] = test system: SF-295 CNS
# [44] = test system: SF-539 CNS
# [45] = test system: SK-MEL-2 melanoma
# [46] = test system: SK-MEL-28 melanoma
# [47] = test system: SK-MEL-5 melanoma
# [48] = test system: SK-OV-3 ovarian
# [49] = test system: SN12C renal
# [50] = test system: SNB-19 CNS
# [51] = test system: SNB-75 CNS
# [52] = test system: SR leukemia
# [53] = test system: SW-620 colon
# [54] = test system: T-47D breast
# [55] = test system: TK-10 renal
# [56] = test system: U251 CNS
# [57] = test system: UACC-257 melanoma
# [58] = test system: UACC-62 melanoma
# [59] = test system: UO-31 renal
compound,measurement,setting,value
CC(C)NCC(O)c1cc(OCc2ccccc2)c(OCc2ccccc2)cc1NC(=O)CCC(=O)O (stereo not drawn),TGI,[1],20.9 µM
same,TGI,[2],26 µM
same,TGI,[3],24.5 µM
same,TGI,[4],13.1 µM
same,TGI,[5],31.1 µM
same,TGI,[6],21.3 µM
same,TGI,[7],13 µM
same,TGI,[8],4.01 µM
same,TGI,[9],25.8 µM
same,TGI,[10],26.9 µM
same,TGI,[11],6.47 µM
same,TGI,[12],17.9 µM
same,TGI,[13],12.4 µM
same,TGI,[14],15.4 µM
same,TGI,[15],29.7 µM
same,TGI,[16],19 µM
same,TGI,[17],30.7 µM
same,TGI,[18],12.9 µM
same,TGI,[19],24.2 µM
same,TGI,[20],4.32 µM
same,TGI,[21],9.51 µM
same,TGI,[22],2.97 µM
same,TGI,[23],3.48 µM
same,TGI,[24],28.6 µM
same,TGI,[25],19 µM
same,TGI,[26],20.9 µM
same,TGI,[27],17.4 µM
same,TGI,[28],5.97 µM
same,TGI,[29],14.8 µM
same,TGI,[30],33.2 µM
same,TGI,[31],26.5 µM
same,TGI,[32],3.71 µM
same,TGI,[33],11.7 µM
same,TGI,[34],28.7 µM
same,TGI,[35],28.2 µM
same,TGI,[36],24.8 µM
same,TGI,[37],30.6 µM
same,TGI,[38],21.5 µM
same,TGI,[39],21.3 µM
same,TGI,[40],8.65 µM
same,TGI,[41],18.6 µM
same,TGI,[42],22.7 µM
same,TGI,[43],15.7 µM
same,TGI,[44],30.9 µM
same,TGI,[45],3.32 µM
same,TGI,[46],9.37 µM
same,TGI,[47],4.97 µM
same,TGI,[48],29.2 µM
same,TGI,[49],24.3 µM
same,TGI,[50],28.3 µM
same,TGI,[51],23.9 µM
same,TGI,[52],9.01 µM
same,TGI,[53],7.51 µM
same,TGI,[54],25.7 µM
same,TGI,[55],22.5 µM
same,TGI,[56],18.2 µM
same,TGI,[57],26.4 µM
same,TGI,[58],8.69 µM
same,TGI,[59],15 µM
c1cc(-c2ccsc2-c2ccsc2)cs1,TGI,[1],> 100 µM
same,TGI,[2],> 100 µM
same,TGI,[3],> 100 µM
same,TGI,[4],> 100 µM
same,TGI,[5],> 100 µM
same,TGI,[6],> 100 µM
same,TGI,[7],> 100 µM
same,TGI,[8],> 100 µM
same,TGI,[9],> 100 µM
same,TGI,[10],> 100 µM
same,TGI,[11],> 100 µM
same,TGI,[12],> 100 µM
same,TGI,[13],> 100 µM
same,TGI,[14],> 100 µM
same,TGI,[15],> 100 µM
same,TGI,[16],> 100 µM
same,TGI,[17],> 100 µM
same,TGI,[18],> 100 µM
same,TGI,[19],> 100 µM
same,TGI,[20],> 100 µM
same,TGI,[21],99.7 µM
same,TGI,[22],> 100 µM
same,TGI,[23],> 100 µM
same,TGI,[24],> 100 µM
same,TGI,[25],> 100 µM
same,TGI,[26],> 100 µM
same,TGI,[27],> 82.9 µM
same,TGI,[28],> 72.5 µM
same,TGI,[29],> 89 µM
same,TGI,[30],> 71.7 µM
same,TGI,[31],> 100 µM
same,TGI,[32],> 100 µM
same,TGI,[33],> 100 µM
same,TGI,[34],> 100 µM
same,TGI,[35],> 100 µM
same,TGI,[36],> 100 µM
same,TGI,[37],> 100 µM
same,TGI,[38],> 100 µM
same,TGI,[39],> 100 µM
same,TGI,[40],> 100 µM
same,TGI,[41],> 85.5 µM
same,TGI,[42],> 100 µM
same,TGI,[43],> 100 µM
same,TGI,[44],> 100 µM
same,TGI,[45],> 59.1 µM
same,TGI,[46],> 100 µM
same,TGI,[47],> 100 µM
same,TGI,[48],> 100 µM
same,TGI,[49],> 100 µM
same,TGI,[50],> 100 µM
same,TGI,[51],> 100 µM
same,TGI,[52],> 74.9 µM
same,TGI,[53],> 100 µM
same,TGI,[54],> 100 µM
same,TGI,[55],> 100 µM
same,TGI,[56],> 100 µM
same,TGI,[57],> 100 µM
same,TGI,[58],> 100 µM
same,TGI,[59],> 100 µM
